Experimental data published in publication PMC8374649, “IBI362 (LY3305677), a weekly-dose GLP-1 and glucagon receptor dual agonist, in Chinese adults with overweight or obesity: A randomised, placebo-controlled, multiple ascending dose phase 1b study” (EClinicalMedicine, 2021).
Where two headings read alike, the source gives them in different places.

Columns and labels:
[1] = Pharmacokinetics, non-compartmental, plasma concentration after subcutaneous dosing; type: in vivo; conditions: human; for Cmax / AUC(0-t): n = 8, geometric mean (CV%); for AUC(0-t): read-out: AUC0–168h
Experimental: (§1) Pharmacokinetic parameters were assessed on pre-defined visits in all participants who received IBI362. […] Standard non-compartmental pharmacokinetics methods were used to analyze IBI362 plasma concentration data using Pkanalix 2020R1 (Lixoft, Antony, France). The values for Cmax and Tmax were taken directly from the observed plasma concentration data. The terminal-phase disposition rate constant (λz) was estimated using a log-linear regression of the concentration data in the terminal disposition phase, and T1/2 was estimated as ln(2)/λz. Immunogenicity was assessed by measures of anti-drug antibody-positive responses.
Safety analyses were done in the safety population (defined as all participants who received at least one dose of the study treatment). Pharmacokinetic analyses were done in the pharmacokinetic population (defined as all participants who received at least one dose of IBI362 and had at least one valid plasma concentration assessment). Pharmacodynamic analyses were done in the pharmacodynamic population (defined as all participants who received at least one dose of the study treatment and had baseline and at least one valid assessment). Efficacy analyses were done in the efficacy population (defined as all participants who received at least one dose of the study treatment and had at least one post-baseline assessment).

[2] = Immunogenicity, anti-drug antibody-positive responses; type: in vivo, human
Experimental: as §1

[3] = system: Chinese adults with overweight or obesity; test: Efficacy and pharmacodynamic endpoints, change from baseline to week 12; type: in vivo, human; conditions: for Body weight Percent CFB / BMI CFB / Body weight CFB / Diastolic blood pressure CFB / Fasting insulin CFB / Fasting plasma glucose CFB / LDL cholesterol CFB / Systolic blood pressure CFB / Total cholesterol CFB / Triglycerides CFB / Waist circumference CFB / Serum uric acid CFB: MMRM; for HbA1c CFB: ANCOVA, LOCF; for Serum uric acid CFB: post-hoc, baseline to week 12, LS mean (95% CI)
Description: The secondary pharmacodynamic endpoints included changes from baseline (pre-dose on day 0) to week 12 in fasting plasma glucose and fasting insulin levels. The secondary efficacy endpoints included changes from baseline to week 12 in body weight, waist circumference, waist-to-hip ratio, BMI, blood pressure, heart rate, lipids and HbA1c levels. Post-hoc comparison of changes from baseline to week 12 in serum uric acid levels was done between participants receiving IBI362 in each cohort and those receiving placebo. We used mixed effect model for repeated measures (MMRM) for post-baseline repeated measures to analyse continuous efficacy and pharmacodynamic endpoints. The MMRM included the corresponding baseline value, treatment, visit and treatment-by-visit as fixed effects and participant as a random effect. Mean change from baseline or mean percent change from baseline were analysed using a restricted maximum likelihood (REML)-based repeated measures approach in combination with the Newton Raphson Algorithm. The fix effect of visit was fitted as a repeated effect and an unstructured covariance matrix was used. In case of non-converge, matrix like Variance Components and Compound Symmetry will be tested in a subsequent order until model-convergence is achieved. The between-subject degree of freedom was used in estimating fixed effects. No missing data imputation was conducted. Least squares mean estimates of treatment effect at week 12 as well as treatment difference versus placebo alongside with two-sided 95% confidence intervals were provided for key efficacy and pharmacodynamic endpoints. Significance test for body weight was based on least squares means using a two-sided α of 0.05. HbA1c was measured only at baseline and week 12. Least squares mean estimates for HbA1c were computed from an Analysis of Covariance (ANCOVA) model with baseline HbA1c value and treatment as covariates. Last observation carried forward (LOCF) was used for imputing missing post-baseline measure. Least squares mean estimates of treatment effect at week 12 alongside with two-sided 95% confidence intervals were provided. Post-hoc analysis of serum uric acid was performed using MMRM model described above.

mouse glucagon receptors = conditions: in vitro; cited from earlier work
Description: (§2) IBI362 is a long-acting synthetic peptide analogue of mammalian OXM, with a fatty-acyl moiety to extend the half-life. […] Furthermore, a first-in-human single ascending dose ...

mouse GLP-1 receptors = conditions: in vitro; cited from earlier work
Description: as §2

mice = conditions: cited from earlier work
Description: as §2

Glp1r KO mice = conditions: cited from earlier work
Description: as §2

human glucagon receptors = conditions: in vitro; cited from earlier work
Description: as §2

healthy subjects = conditions: single ascending dose; cited from earlier work
Description: as §2

Gcgr knockout (KO) mice = conditions: cited from earlier work
Description: as §2

human GLP-1 receptors = conditions: in vitro; cited from earlier work
Description: as §2

[4] = 1 mg, after first sc dose, 1.0–2.0–3.0 mg regimen
[5] = 1.5 mg, after first sc dose, 1.5–3.0–4.5 mg regimen
[6] = 2 mg, after first sc dose, 2.0–4.0–6.0 mg regimen
[7] = 1.0–2.0–3.0 mg sc once weekly, baseline to week 12, n = 8, LS mean (95% CI)
[8] = 1.5–3.0–4.5 mg sc once weekly, baseline to week 12, n = 8, LS mean (95% CI)
[9] = 2.0–4.0–6.0 mg sc once weekly, baseline to week 12, n = 7, LS mean (95% CI)

SMILES: CC(C)C[C@H](NC(=O)[C@H](CC(C)C)NC(=O)[C@H](Cc1c[nH]c2ccccc12)NC(=O)[C@H](CCC(=O)O)NC(=O)[C@@H](NC(=O)[C@H](Cc1ccccc1)NC(=O)[C@H](CCC(=O)O)NC(=O)[C@H](CCCCNC(=O)COCCOCCNC(=O)COCCOCCNC(=O)CC[C@H](NC(=O)CCCCCCCCCCCCCCCCCCC(=O)O)C(=O)O)NC(=O)[C@H](C)NC(=O)[C@H](CCCCN)NC(=O)[C@H](CCCCN)NC(=O)[C@H](CCC(=O)O)NC(=O)[C@H](CC(=O)O)NC(=O)[C@H](CC(C)C)NC(=O)[C@H](Cc1ccc(O)cc1)NC(=O)[C@H](CCCCN)NC(=O)[C@H](CO)NC(=O)[C@H](Cc1ccc(O)cc1)NC(=O)[C@H](CC(=O)O)NC(=O)[C@H](CO)NC(=O)[C@@H](NC(=O)[C@H](Cc1ccccc1)NC(=O)[C@@H](NC(=O)CNC(=O)[C@H](CCC(N)=O)NC(=O)C(C)(C)NC(=O)[C@@H](N)Cc1c[nH]cn1)[C@@H](C)O)[C@@H](C)O)C(C)C)C(=O)N[C@@H](CCC(=O)O)C(=O)NCC(=O)NCC(=O)N1CCC[C@H]1C(=O)N[C@@H](CO)C(=O)N[C@@H](CO)C(=O)NCC(N)=O [IBI362]
- Cmax [1, 4]: 82.4 ng/mL
- AUC(0-t) [1, 4]: 12500 ng·h/mL
- Tmax ([1]; 1 mg, after first sc dose, 1.0–2.0–3.0 mg regimen, n = 8, median (range), read-out: Tmax): 71.9 h
- Cmax [1, 5]: 99.6 ng/mL
- AUC(0-t) [1, 5]: 15600 ng·h/mL
- Tmax ([1]; 1.5 mg, after first sc dose, 1.5–3.0–4.5 mg regimen, n = 8, median (range), read-out: Tmax): 84.5 h
- Cmax [1, 6]: 134 ng/mL
- AUC(0-t) [1, 6]: 19200 ng·h/mL
- Tmax ([1]; 2 mg, after first sc dose, 2.0–4.0–6.0 mg regimen, n = 8, median (range), read-out: Tmax): 71.9 h
- Tmax ([1]; first sc doses, all cohorts, read-out: median Tmax): 72 h
- Participants who developed anti-IBI362 antibody ([2]; 3.0 mg cohort): One
- Participants who developed anti-IBI362 antibody ([2]; 4.5 mg cohort): one
- Body weight Percent CFB ([3]; 1.0–2.0–3.0 mg sc once weekly (3.0 mg cohort), baseline to week 12, n = 8, LS mean (95% CI)): −4.81%
- HbA1c CFB [3, 7]: −0.38%
- BMI CFB [3, 7]: −1.44 kg/m²
- Body weight CFB [3, 7]: -3.80 kg
- Diastolic blood pressure CFB [3, 7]: −8.48 mm Hg
- Fasting insulin CFB [3, 7]: −3.58 µU/mL
- Fasting plasma glucose CFB [3, 7]: -0.30 mmol/L
- LDL cholesterol CFB [3, 7]: -0.11 mmol/L
- Systolic blood pressure CFB [3, 7]: −8.26 mm Hg
- Total cholesterol CFB [3, 7]: -0.74 mmol/L
- Triglycerides CFB [3, 7]: -0.44 mmol/L
- Waist circumference CFB [3, 7]: −3.25 cm
- Body weight Percent CFB ([3]; 1.5–3.0–4.5 mg sc once weekly (4.5 mg cohort), baseline to week 12, n = 8, LS mean (95% CI)): −6.40%
- HbA1c CFB [3, 8]: −0.24%
- BMI CFB [3, 8]: −2.00 kg/m²
- Body weight CFB [3, 8]: -5.77 kg
- Diastolic blood pressure CFB [3, 8]: −5.76 mm Hg
- Fasting insulin CFB [3, 8]: −6.14 µU/mL
- Fasting plasma glucose CFB [3, 8]: -0.11 mmol/L
- LDL cholesterol CFB [3, 8]: -0.25 mmol/L
- Systolic blood pressure CFB [3, 8]: −5.80 mm Hg
- Total cholesterol CFB [3, 8]: -0.68 mmol/L
- Triglycerides CFB [3, 8]: -0.55 mmol/L
- Waist circumference CFB [3, 8]: −4.57 cm
- Body weight Percent CFB ([3]; 2.0–4.0–6.0 mg sc once weekly (6.0 mg cohort), baseline to week 12, n = 7, LS mean (95% CI)): −6.05%
- HbA1c CFB [3, 9]: −0.23%
- BMI CFB [3, 9]: −1.88 kg/m²
- Body weight CFB [3, 9]: -5.12 kg
- Diastolic blood pressure CFB [3, 9]: −2.73 mm Hg
- Fasting insulin CFB [3, 9]: −0.42 µU/mL
- Fasting plasma glucose CFB [3, 9]: -0.13 mmol/L
- LDL cholesterol CFB [3, 9]: -0.34 mmol/L
- Systolic blood pressure CFB [3, 9]: −5.59 mm Hg
- Total cholesterol CFB [3, 9]: -0.81 mmol/L
- Triglycerides CFB [3, 9]: -0.74 mmol/L
- Waist circumference CFB [3, 9]: −5.00 cm
- Serum ALT and AST levels ([3]; all three dose cohorts (Fig. S6)): decreased from baseline
- Serum uric acid CFB ([3]; 3.0 mg cohort (1.0-2.0-3.0 mg)): -43.67 µmol/L
- Serum uric acid CFB ([3]; 4.5 mg cohort (1.5-3.0-4.5 mg)): -83.47 µmol/L
- Serum uric acid CFB ([3]; 6.0 mg cohort (2.0-4.0-6.0 mg)): -87.48 µmol/L
- Participants with coincident decrease in body weight, LDL cholesterol, triglycerides, blood pressure and serum uric acid ([3]; week 12, all IBI362 cohorts, 10 participants, data not shown): 41.7%
- Participants achieving ≥5% weight loss from baseline ([3]; week 12, all IBI362 cohorts, thirteen participants): 54.2%
- Binding to mouse glucagon receptors (mouse glucagon receptors): potently bound
- Binding to mouse GLP-1 receptors (mouse GLP-1 receptors): potently bound
- Energy expenditure as compared with vehicle (mice): increased energy expenditure
- Glucose control (mice): improved glucose control
- Body weight (Glp1r KO mice): decreased body weight
- Binding to human glucagon receptors (human glucagon receptors): potently bound
- Safety, glycaemic improvement and weight loss (healthy subjects): demonstrated the safety, glycaemic improvement and weight loss
- Body weight (Gcgr knockout (KO) mice): decreased body weight
- Binding to human GLP-1 receptors (human GLP-1 receptors): potently bound
